{"source": "patent US20190369122A1", "about": "“METABOLIC DISORDERS” (priority 2016, published 2019)", "key": {"[1]": {"experiment": "Plasma levels after intraperitoneal injection in CONVR mice", "assay_type": "in vivo, mouse", "conditions": "100 μg i.p. twice per day for 3 days", "protocol": "An intraperitoneal glucose tolerance test (using 1 g glucose per kg body weight) was then performed after a 4 h fast. Blood glucose levels were measured from tail blood using HemoCue201+analyzer (HemoCue, Angelholm, Sweden). Liver and plasma samples were collected after a 4 h fast. Mice were under isoflurane anesthesia and killed by cervical dislocation. Fresh liver was taken and snap-frozen in liquid nitrogen and stored at −80° C. until protein extraction.\nThe samples were then reconstituted with 5% HCl in n-butanol at 70° C. for 1 h, allowing n-butyl ester to be formed. […] Samples (5 μl) were injected onto a C18 BEH column (2.1×100 mm with 1.7 μm particles; Waters, Milford, Mass.) using a gradient consisting of water with 0.1% formic acid (A-phase) and acetonitrile with 0.1% formic acid (B-phase). Mass spectrometric analysis was performed using an Infinity 1290 quaternary UPLC pump (Agilent, Santa Clara, Calif.) coupled to a QTRAP 5500 (ABSciex, Concord, Canada). […] For the internal standards, the transitions 206/81 and 204/93 were used."}, "HEK293 cells": {"tested_on": "HEK293 cells", "experiment": "Signaling in HEK293 cells (immunoblot)", "assay_type": "cell-based, human", "protocol": "(§1) Snap-frozen liver and harvested cells were lysed in buffer containing 50 mM Tris-HCl (pH 7.4), 150 mM NaCl, 1 mM EDTA, 1 mM Na3VO4, 20 mM NaF, 10 mM glycerophosphate, 1 mM PMSF, 10% glycerol, 1% Triton X-100 and protease inhibitor cocktail. For immunoprecipitation, the cell lysates were obtained in 0.3% CHAPS-containing lysis buffer, sonicated and centrifuged at 20,000 g for 15 min at 4° C., and the supernatant was incubated with 20 μl of anti-FLAG beads (Sigma) at 4° C. for 4 h under gentle agitation.\nHEK293 cells (ATCC CRL-1573) were grown and maintained in high-glucose (4.5 g/l glucose) DMEM with 10% (v/v) FBS. […] 24 h after transfection (with plasmids or siRNA as indicated), HEK293 cells cultured in poly-L-lysine-coated 60 mm dishes were rinsed twice with DMEM without FBS and incubated in serum-free DMEM for 18 h. HEK293 cells were then washed once with EBSS and incubated in EBSS for 1 h."}, "mTORC1": {"tested_on": "mTORC1", "experiment": "mTOR modification in mTORC1 (Raptor immunoprecipitation), HEK293", "assay_type": "cell-based, human", "protocol": "as §1"}}}
{"smiles": "O=C(O)CCc1cnc[nH]1", "note": "[imidazole propionate]", "values": [{"measurement": "effect on urocanate levels", "setting": "[1]", "result": "without affecting"}, {"measurement": "increase of circulating concentrations of imidazole propionate", "setting": "[1]", "result": "around 4 fold"}, {"measurement": "S6K1 phosphorylation", "setting": "HEK293 cells; HEK293, 100 μM for 1 h", "result": "induced"}, {"measurement": "basal activation of Akt", "setting": "HEK293 cells; HEK293, 8 h pretreatment", "result": "increased"}, {"measurement": "responsiveness of Akt S473 to insulin", "setting": "HEK293 cells; HEK293, 8 h pretreatment", "result": "reduced"}, {"measurement": "lowest concentration with p62 phosphorylation activation", "setting": "HEK293 cells; HEK293, absence of amino acids", "result": 10, "unit": "nM"}, {"measurement": "p62 phosphorylation", "setting": "HEK293 cells; HEK293, absence of amino acids, 1 and 2 h", "result": "concentration- and time-dependent increase"}, {"measurement": "Akt phosphorylation", "setting": "HEK293 cells; HEK293, compared with amino acids", "result": "induced"}, {"measurement": "time to mTORC1 activation", "setting": "HEK293 cells; absence of amino acids", "result": "≥ 30", "unit": "min"}, {"measurement": "IRS1 S636/S639 phosphorylation", "setting": "HEK293 cells; amino acid-deprived HEK293, 2 h", "result": "induced"}, {"measurement": "IRS1 levels", "setting": "HEK293 cells; amino acid-deprived HEK293, 8 h", "result": "dramatically reduced"}, {"measurement": "IRS1 protein levels", "setting": "HEK293 cells; amino acid-deprived cells, up to 2 h", "result": "not reduced"}, {"measurement": "time to S6K1 phosphorylation", "setting": "HEK293 cells; presence of amino acids", "result": "≤ 30", "unit": "min"}, {"measurement": "modulation of mTORC1", "setting": "mTORC1; HEK293, 2 h incubation", "result": "specifically modulated"}, {"measurement": "mTOR S2448 phosphorylation in mTORC1", "setting": "mTORC1; Raptor immunoprecipitation", "result": "strongly induced"}, {"measurement": "mTOR S2481 phosphorylation in mTORC1", "setting": "mTORC1; Raptor immunoprecipitation", "result": "not"}]}
